Reference: PMC5267519, “Evaluation of a Novel Renewable Hepatic Cell Model for Prediction of Clinical CYP3A4 Induction Using a Correlation-Based Relative Induction Score Approach” (Drug Metabolism and Disposition, 2017)
pEC50: −log10 of the molar value. “And” between values parts separate entries of the source, which are not always exact repeats. Equal values may be shown once. Read-outs that look alike come from different tables or passages of the source.

Key:
CYP3A4 [1] = conditions: for RIS Based on Enzyme Activity: RIS = (Emax × Cmax,ub)/(EC50 + Cmax,ub); for RIS values based on enzyme activity (range stated for group of compounds): range over named compounds and three lots
CYP3A4 mRNA [2] = assay: Concentration-dependent CYP3A4 mRNA induction in HepatoCells; conditions: for CYP3A4 mRNA expression induction response (in words): three lots of HepatoCells, eight concentrations; for Emax / pEC50: CYP3A4 mRNA fold increase, NI = no induction observed at tested concentration; for Emax: 3 consecutive days treatment, quinidine: only observed maximum fold induction; for RIS Based on mRNA: RIS = (Emax × Cmax,ub)/(EC50 + Cmax,ub); for pEC50: human, nominal concentrations; for RIS Based on mRNA, Mean: mean of lots 2B, 3A, 3B; for RIS values based on CYP3A4 mRNA level (range stated for group of compounds): range over named compounds and three lots
Description: (§1) Cryopreserved HepatoCells were thawed quickly in a 37°C water bath and transferred to Corning Culture Medium for HepatoCells supplemented with 10% fetal bovine serum and Pen/Strep (plating medium). After the cryo-freezing media was removed by centrifugation at 150g for 10 minutes, the cell pellet was resuspended in plating media and cell count was performed with trypan blue. Cells were then seeded in a Corning BioCoat Collagen I–coated plate (500,000 cells/well in 24-well plate or 80,000 cells/well in 96-well plate), and plates were incubated in a 37°C incubator with 5% CO2. […] Cells were then returned to the incubator for overnight culture.
(§2) Stock solutions of test compounds were prepared by dissolving each compound in DMSO and serially diluting the solutions in DMSO. Final working solutions were freshly prepared daily by diluting the 1000× stock solutions in culture medium. Three lots of HepatoCells culture were treated with eight concentrations of test compounds. Both enzymatic activity (testosterone 6β hydroxylase activity) and mRNA expression were measured as endpoints using LC-MS/MS and real-time reverse-transcription polymerase chain reaction, respectively.

CYP3A4 [3] = conditions: for Predicted AUC change using HepatoCells (range of lots): three lots, mRNA or activity basis not given
Source text: The resulting fitting equation was used to calculate predicted in vivo AUC change for each compound. […] Prediction accuracy using HepatoCells was also compared with prediction accuracy using primary human hepatocytes.

CYP3A4 mRNA [4] = conditions: for RIS Based on mRNA, Mean: human
Description: as §1, §2

CYP3A4 [5] = conditions: cited from earlier work
CYP3A4 [6] = conditions: hepatocytes; cited from earlier work
MRP2 = target: T1, MRP2 (Homo sapiens, UniProt Q92887); assay: CDFDA staining of bile canaliculi in HepatoCells sandwich culture; assay type: cell-based; conditions: pretreatment with inhibitor
T1 construct: the functional efflux transporter MRP2 is expressed and localized at the apical surface of HepatoCells; host or cells: Corning HepatoCells, collagen/Matrigel sandwich culture
Description: On day 1, HepatoCells were plated on collagen-coated dishes. Four to six hours after seeding, cell monolayer was overlaid with Matrigel solution at 0.25 mg/mL (as described above). Daily medium change was performed from day 2 to day 4 using fresh Corning Culture Medium for HepatoCells. On day 5, the sandwich cultures were incubated with carboxy-dichlorofluorescein diacetate (CDFDA), a multidrug-resistant protein 2 (MRP2) substrate that is metabolized by cytosolic esterases. The fluorescent CDFDA metabolite accumulated in bile canalicular lumens was visualized using fluorescence microscopy.

CYP1A2 [7] = assay: CYP1A2 induction response to prototypical inducer, enzyme activity, HepatoCells; conditions: human, probe phenacetin 100 µM
Description: as §1

CYP1A2 [8] = assay: CYP1A2 induction response to prototypical inducer, enzyme activity, primary human hepatocytes; conditions: cryopreserved primary human hepatocytes, probe phenacetin 100 µM
[9] = Solubility at test concentrations in induction assay; assay type: physicochemical; conditions: at 33 μM and 100 μM
Description: Only curve fitting with correlation coefficient (R^2) > 0.85 is accepted. At high concentrations for some compounds, if toxicity or insolubility becomes obvious, such data are excluded from curve fitting. Following the same approach as described by [Zhang et al. (2014)] and [Fahmi and Ripp (2010)], for data sets that show no apparent plateau, the observed maximum fold increase is accepted as Emax to avoid extrapolating too much above the experimental values and EC50 is calculated accordingly from the fitting curve.

[10] = three lots of HepatoCells, eight concentrations
[11] = Lot 2B HepatoCells, RIS calibration curve
[12] = Lot 3A HepatoCells, RIS calibration curve
[13] = Lot 3B HepatoCells, RIS calibration curve
[14] = clinical DDI, decrease in AUC of victim drug (midazolam or nonmidazolam), ref Zhang et al., 2014

T1 sequence (Q92887 whole entry): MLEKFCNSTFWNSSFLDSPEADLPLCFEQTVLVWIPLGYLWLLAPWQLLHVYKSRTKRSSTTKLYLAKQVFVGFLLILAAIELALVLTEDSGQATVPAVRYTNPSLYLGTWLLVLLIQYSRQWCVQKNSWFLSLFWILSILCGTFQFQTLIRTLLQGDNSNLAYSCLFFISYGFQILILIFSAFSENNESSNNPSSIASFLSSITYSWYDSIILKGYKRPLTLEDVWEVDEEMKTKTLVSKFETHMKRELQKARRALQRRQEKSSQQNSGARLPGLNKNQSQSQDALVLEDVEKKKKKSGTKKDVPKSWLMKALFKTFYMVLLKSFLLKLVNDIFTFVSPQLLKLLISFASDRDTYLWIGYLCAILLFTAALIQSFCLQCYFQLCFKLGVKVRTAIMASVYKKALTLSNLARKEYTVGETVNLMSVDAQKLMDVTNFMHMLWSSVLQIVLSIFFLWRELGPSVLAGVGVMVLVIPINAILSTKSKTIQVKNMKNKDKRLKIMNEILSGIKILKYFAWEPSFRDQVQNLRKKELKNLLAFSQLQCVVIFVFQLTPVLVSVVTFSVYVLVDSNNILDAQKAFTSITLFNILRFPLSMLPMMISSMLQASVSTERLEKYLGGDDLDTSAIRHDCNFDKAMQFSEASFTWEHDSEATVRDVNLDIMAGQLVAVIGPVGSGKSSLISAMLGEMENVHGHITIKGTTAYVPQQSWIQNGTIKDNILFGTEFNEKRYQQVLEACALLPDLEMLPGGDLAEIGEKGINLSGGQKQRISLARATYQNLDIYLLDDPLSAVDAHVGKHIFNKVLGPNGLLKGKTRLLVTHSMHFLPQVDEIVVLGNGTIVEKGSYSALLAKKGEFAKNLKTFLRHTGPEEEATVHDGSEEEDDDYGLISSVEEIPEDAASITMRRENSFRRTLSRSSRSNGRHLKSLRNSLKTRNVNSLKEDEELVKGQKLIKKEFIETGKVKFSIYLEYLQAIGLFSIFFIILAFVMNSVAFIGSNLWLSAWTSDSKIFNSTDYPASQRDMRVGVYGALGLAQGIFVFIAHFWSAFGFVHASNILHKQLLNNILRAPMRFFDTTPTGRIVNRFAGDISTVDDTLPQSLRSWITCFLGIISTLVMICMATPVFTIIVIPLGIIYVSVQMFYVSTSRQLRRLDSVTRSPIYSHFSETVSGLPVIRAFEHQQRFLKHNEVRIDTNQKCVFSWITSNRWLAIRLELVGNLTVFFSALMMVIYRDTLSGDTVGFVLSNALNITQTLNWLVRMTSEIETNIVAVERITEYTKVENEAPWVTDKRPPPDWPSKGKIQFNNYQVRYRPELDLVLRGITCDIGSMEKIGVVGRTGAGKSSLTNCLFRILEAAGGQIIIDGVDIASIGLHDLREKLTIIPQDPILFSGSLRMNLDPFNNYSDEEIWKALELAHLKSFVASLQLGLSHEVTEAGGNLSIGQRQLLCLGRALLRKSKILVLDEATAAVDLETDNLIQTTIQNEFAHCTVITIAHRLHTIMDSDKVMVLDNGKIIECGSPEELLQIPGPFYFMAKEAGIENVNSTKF

Row | SMILES | Emax (CYP3A4 mRNA [2]; Lot 2B HepatoCells) | Emax (CYP3A4 mRNA [2]; Lot 3A HepatoCells) | Emax (CYP3A4 mRNA [2]; Lot 3B HepatoCells) | Predicted % AUC Change Based on Activity (CYP3A4 [3]; [11]) | Predicted % AUC Change Based on mRNA (CYP3A4 [3]; [11]) | Predicted % AUC Change Based on Activity (CYP3A4 [3]; [12]) | Predicted % AUC Change Based on mRNA (CYP3A4 [3]; [12]) | Predicted % AUC Change Based on Activity (CYP3A4 [3]; [13]) | Predicted % AUC Change Based on mRNA (CYP3A4 [3]; [13]) | RIS Based on Enzyme Activity (CYP3A4 [1]; Lot 2B) | RIS Based on Enzyme Activity (CYP3A4 [1]; Lot 3A) | RIS Based on Enzyme Activity (CYP3A4 [1]; Lot 3B) | RIS Based on Enzyme Activity, Mean (CYP3A4 [1]; mean of lots 2B, 3A, 3B) | RIS Based on mRNA (CYP3A4 mRNA [2]; Lot 2B) | RIS Based on mRNA (CYP3A4 mRNA [2]; Lot 3A) | RIS Based on mRNA (CYP3A4 mRNA [2]; Lot 3B) | pEC50 (CYP3A4 mRNA [2]; EC50, Lot 2B HepatoCells) | pEC50 (CYP3A4 mRNA [2]; EC50, Lot 3A HepatoCells) | pEC50 (CYP3A4 mRNA [2]; EC50, Lot 3B HepatoCells) | RIS Based on mRNA, Mean (CYP3A4 mRNA [2]) | also measured
1 | CN(Cc1cnc2nc(N)nc(N)c2n1)c1ccc(C(=O)N[C@@H](CCC(=O)O)C(=O)O)cc1 [Methotrexate] |  |  |  |  |  |  |  |  |  |  |  |  |  |  |  |  |  |  |  |  | CYP3A4 enzyme activity induction response (in words) (CYP3A4 [1]; [10]): no induction response; CYP3A4 mRNA expression induction response (in words) (CYP3A4 mRNA [2]): no induction response
2 | C[C@H]1O[C@@H](O[C@H]2[C@@H](O)C[C@H](O[C@H]3[C@@H](O)C[C@H](O[C@H]4CC[C@@]5(C)[C@H](CC[C@@H]6[C@@H]5C[C@@H](O)[C@]5(C)[C@@H](C7=CC(=O)OC7)CC[C@]65O)C4)O[C@@H]3C)O[C@@H]2C)C[C@H](O)[C@@H]1O [Digoxin] |  |  |  |  |  |  |  |  |  |  |  |  |  |  |  |  |  |  |  |  | CYP3A4 enzyme activity induction response (in words) (CYP3A4 [1]; [10]): no induction response; CYP3A4 mRNA expression induction response (in words) (CYP3A4 mRNA [2]): no induction response
3 | Clc1ccccc1C(c1ccccc1)(c1ccccc1)n1ccnc1 [Clotrimazole] |  |  |  |  |  |  |  |  |  |  |  |  |  |  |  |  |  |  |  |  | Predicted % AUC Change Based on Activity (CYP3A4 [3]): 0%; Predicted % AUC Change Based on mRNA (CYP3A4 [3]): 0.00%; CYP3A4 mRNA expression induction response (in words) (CYP3A4 mRNA [4]): induced an increase; RIS Based on mRNA, Mean (CYP3A4 mRNA [4]): 0.0044; CYP3A4 enzyme activity induction response (in words) (CYP3A4 [1]): did not increase; Observed % AUC Change (CYP3A4 [5]; human, in vivo): 9.7%; Emax, CYP3A4 enzyme activity (CYP3A4 [6]): 3.1- to 3.3 fold
4 | CN(C)C(=O)CCSC(SCCC(=O)O)c1cccc(/C=C/c2ccc3ccc(Cl)cc3n2)c1 (centres unmarked) [MK571] |  |  |  |  |  |  |  |  |  |  |  |  |  |  |  |  |  |  |  |  | effect on CDFDA staining of bile canaliculi (MRP2): inhibited the specific CDFDA staining of bile canaliculi
5 | C=C[C@H]1C[N@@]2CC[C@H]1C[C@@H]2[C@@H](O)c1ccnc2ccc(OC)cc12 [Quinidine] |  |  |  |  |  |  |  |  |  |  |  |  |  |  |  |  |  |  |  |  | CYP3A4 mRNA induction over solvent vehicle control (CYP3A4 mRNA [4]): one- to twofold increase; CYP3A4 enzyme activity induction over solvent vehicle control (CYP3A4 [1]): one- to twofold increase; CYP3A4 enzyme activity induction response (in words) (CYP3A4 [1]): did not cause a concentration-dependent increase
6 | CN(C/C=C/C#CC(C)(C)C)Cc1cccc2ccccc12 [Terbinafine] | 20 Fold | 24 Fold | 21 Fold |  |  |  |  |  |  |  |  |  |  |  |  |  |  |  |  |  | Predicted % AUC Change Based on Activity (CYP3A4 [3]): 29% and 15%; Predicted AUC change using enzyme activity data (range of lots) (CYP3A4 [3]): 15–29%; Predicted AUC change using mRNA data (range of lots) (CYP3A4 [3]): 8–19%; RIS Based on mRNA, Mean (CYP3A4 mRNA [4]): 0.19; RIS Based on Enzyme Activity, Mean (CYP3A4 [1]; human): 0.2; Observed % AUC Change (CYP3A4 [5]; human, in vivo): 25%
7 | CCOC(=O)c1ncn2c1CN(C)C(=O)c1cc(F)ccc1-2 [Flumazenil] |  |  |  |  |  |  |  |  |  |  |  |  |  |  |  |  |  |  |  |  | CYP3A4 enzyme activity induction response (in words) (CYP3A4 [1]; [10]): no induction response; CYP3A4 mRNA expression induction response (in words) (CYP3A4 mRNA [2]): no induction response

Continued, in another order:

Row | Emax (CYP3A4 mRNA [2]; Lot 2B HepatoCells) | Emax (CYP3A4 mRNA [2]; Lot 3A HepatoCells) | Emax (CYP3A4 mRNA [2]; Lot 3B HepatoCells) | Predicted % AUC Change Based on Activity (CYP3A4 [3]; [11]) | Predicted % AUC Change Based on mRNA (CYP3A4 [3]; [11]) | Predicted % AUC Change Based on Activity (CYP3A4 [3]; [12]) | Predicted % AUC Change Based on mRNA (CYP3A4 [3]; [12]) | Predicted % AUC Change Based on Activity (CYP3A4 [3]; [13]) | Predicted % AUC Change Based on mRNA (CYP3A4 [3]; [13]) | RIS Based on Enzyme Activity (CYP3A4 [1]; Lot 2B) | RIS Based on Enzyme Activity (CYP3A4 [1]; Lot 3A) | RIS Based on Enzyme Activity (CYP3A4 [1]; Lot 3B) | RIS Based on Enzyme Activity, Mean (CYP3A4 [1]; mean of lots 2B, 3A, 3B) | RIS Based on mRNA (CYP3A4 mRNA [2]; Lot 2B) | RIS Based on mRNA (CYP3A4 mRNA [2]; Lot 3A) | RIS Based on mRNA (CYP3A4 mRNA [2]; Lot 3B) | pEC50 (CYP3A4 mRNA [2]; EC50, Lot 2B HepatoCells) | pEC50 (CYP3A4 mRNA [2]; EC50, Lot 3A HepatoCells) | pEC50 (CYP3A4 mRNA [2]; EC50, Lot 3B HepatoCells) | RIS Based on mRNA, Mean (CYP3A4 mRNA [2]) | SMILES | also measured
8 | 24 Fold | 45 Fold | 27 Fold | 0.11% | 1.7% | 0.002% | 0.14% | 0.017% | 0.35% | 0.015 | 0.009 | 0.007 | 0.0103 | 0.069 | 0.073 | 0.079 | 4.89 | 4.64 | 4.89 | 0.074 | COc1ccc2[nH]c([S+]([O-])Cc3ncc(C)c(OC)c3C)nc2c1 (centres unmarked) [Omeprazole] | Predicted AUC change using HepatoCells (range of lots) (CYP3A4 [3]): 0.1–1.7%; RIS values based on enzyme activity (range stated for group of compounds) (CYP3A4 [1]): 0.0004–0.09; Observed % AUC Change (CYP3A4 [5]; [14]): −25%; RIS values based on CYP3A4 mRNA level (range stated for group of compounds) (CYP3A4 mRNA [2]): 0.0012–0.16; fold induction at 72 h, 50 µM (CYP1A2 [7]): 32.4; fold induction at 72 h, 50 µM (CYP1A2 [8]): 28.7
9 | 33 Fold | 31 Fold | 15 Fold | 17% | 36% | 23% | 35% | 34% | 29% | 0.12 | 0.20 | 0.28 | 0.2 | 0.28 | 0.37 | 0.21 | 5.48 | 5.64 | 5.70 | 0.29 | CCc1ccc(CCOc2ccc(CC3SC(=O)NC3=O)cc2)nc1 (centres unmarked) [Pioglitazone] | Predicted AUC change using enzyme activity data (range of lots) (CYP3A4 [3]; three lots of HepatoCells): 17–34%; Predicted AUC change using mRNA data (range of lots) (CYP3A4 [3]; three lots of HepatoCells): 29–36%; solubility [9]: insoluble; Observed % AUC Change (CYP3A4 [5]; [14]): 26%
10 | 23 Fold | 38 Fold | 35 Fold | 96% | 98% | 96% | 98% | 97% | 95% | 1.8 | 2.3 | 2.4 | 2.2 | 7.5 | 12.1 | 8.5 | 4.82 | 4.80 | 4.64 | 9.4 | O=C1NC(=O)C(c2ccccc2)(c2ccccc2)N1 [Phenytoin] | Predicted AUC change using HepatoCells (range of lots) (CYP3A4 [3]): 95–98%; RIS values based on enzyme activity (range stated for group of compounds) (CYP3A4 [1]): 0.7–24; Observed % AUC Change (CYP3A4 [5]; [14]): 94%; RIS values based on CYP3A4 mRNA level (range stated for group of compounds) (CYP3A4 mRNA [2]): 0.8–25
11 | 31 Fold | 53 Fold | 38 Fold |  |  |  |  |  |  | 1.5 | 1.4 | 1.2 | 1.3 | 1.2 | 1.8 | 1.1 | 4.64 | 4.55 | 4.49 | 1.4 | O=C1C(CC[S+]([O-])c2ccccc2)C(=O)N(c2ccccc2)N1c1ccccc1 (centres unmarked) [Sulfinpyrazone] | 
12 | 16 Fold | 10 Fold | 14 Fold | 92% | 86% | 92% | 87% | 87% | 95% | 0.67 | 0.8 | 0.9 | 0.8 | 0.76 | 0.77 | 1.3 | 3.97 | 4.19 | 4.28 | 0.9 | NC(=O)N1c2ccccc2C=Cc2ccccc21 [Carbamazepine] | RIS values based on enzyme activity (range stated for group of compounds) (CYP3A4 [1]): 0.7–24; Observed % AUC Change (CYP3A4 [5]; [14]): 94%; RIS values based on CYP3A4 mRNA level (range stated for group of compounds) (CYP3A4 mRNA [2]): 0.8–25
